# Columns and labels:
# ferrets = experiment: Evaluation of the emetic effects in ferrets after oral gavage; assay type: in vivo; details: observed up to 6 hours
# Method: The emetic capacity of 4-cyclopropylmethoxy-N-(3,5-dichloro-1-oxidopyridin-4-yl)-5-(methoxy)pyridine-2-carboxamide was evaluated in ferrets. Two groups of ferrets were used, the first being given the carrier (PEG200) and the second being given the 4-cyclopropylmethoxy-N-(3,5-dichloro-1-oxidopyridin-4-yl)-5-(methoxy)pyridine-2-carboxamide in solution in the carrier (PEG 200), by oral gavage. The animals were observed continually for 2 hours following administration, and then every hour until 6 hours after administration. The clinical signs (in particular, retching and vomiting) were noted.
# The emetic capacity of (R)-(−)-rolipram was evaluated in the ferrets. Two groups of ferrets were used, the first being given the carrier (PEG200) and the second being given the […] in solution in the carrier (PEG 200), by oral gavage, at doses of 0.05 mg/kg and of 0.1 mg/kg. The animals were observed continually for the 2 hours following administration, and then once an hour up to 6 hours after the administration. The clinical signs were noted.
# dopamine uptake sites = experiment: Protection in a model of Parkinson's disease: dopaminergic neuron loss in mice poisoned with MPTP, striatal dopamine uptake sites quantified by GBR12935 binding; assay type: in vivo; details: MPTP-poisoned C57BL6 mice, striatum, gavage twice a day for 17 days, MPTP only = 58%, p<0.01 vs MPTP only
# Method: The effects of the 4-cyclopropylmethoxy-N-(3,5-dichloro-1-oxidopyridin-4-yl)-5-(methoxy)pyridine-2-carboxamide used according to the invention were evaluated in mice using a model of dopaminergic neuron loss.
# Protection in a Model of Parkinson's disease (Dopaminergic Neuron Loss in Mice Poisoned with MPTP (1-methyl-4-phenyl-1,2,3,6-tetrahydropyridine):
# C57BL6 mice are given 4 intraperitoneal injections of 20 mg/kg of MPTP, each 2 hours apart. The 4-cyclopropylmethoxy-N-(3,5-dichloro-1-oxidopyridin-4-yl)-5-(methoxy)pyridine-2-carboxamide in solution in the carrier (methylcellulose (MC) (0.6%)+Tween-80 (0.5%)) is administered by gavage between the 2nd and 3rd injection of MPTP and just after the final injection of MPTP, and then twice a day for 17 days at the total daily doses of 0.015 and 0.050 mg/kg. Twenty-four hours after the final treatment, the striatum is removed and the dopamine uptake sites are quantified using a GBR12935 (1-[2-(diphenylmethoxy)ethyl]-4-(3-phenylpropyl)piperazine) binding method.
# [1] = cited from earlier work
# [2] = oral gavage in PEG200, 0.1 mg/kg
SMILES,"emetic effects (retching and vomiting) (ferrets; oral gavage in PEG200, 0.05 mg/kg)",emetic effects (retching and vomiting) (ferrets; [2]),"density of the dopamine uptake sites, % of the level observed in the normal animals (dopamine uptake sites; total daily dose 0.015 mg/kg/d)","density of the dopamine uptake sites, % of the level observed in the normal animals (dopamine uptake sites; total daily dose 0.050 mg/kg/d)",emetic effects in clinical studies [1]
"COc1ccc([C@@H]2CNC(=O)C2)cc1OC1CCCC1 [(R)-(−)-rolipram, (4R)-4-[3-(cyclopentyloxy)-4-methoxyphenyl]pyrrolidine-2-one]",induce vomiting,induce vomiting,–,–,–
"COc1cnc(C(=O)Nc2c(Cl)c[n+]([O-])cc2Cl)cc1OCC1CC1 [4-cyclopropylmethoxy-N-(3,5-dichloro-1-oxidopyridin-4-yl)-5-(methoxy)pyridine-2-carboxamide]",–,neither retching nor vomiting,82%,85%,–
COc1ccc(C2CNC(=O)C2)cc1OC1CCCC1 (stereo not drawn) [rolipram],–,–,–,–,induce emetic effects
